Assay results reported in patent US20220098265A1 (MEDIMMUNE LIMITED, priority 2012, published 2022).
Numbered stars: 1 amine (or outer) side, 2 acyl side, 3 side chain; on linkers, the order of the positions; unused ones are H or OH. Side chains are listed from the residue outwards. Peptide text beside a SMILES is read from it. * marks the point of attachment. γGlu = O=C(O)[C@H](CCC(=O)[*:2])N[*:1]; Palmitoyl = CCCCCCCCCCCCCCCC(=O)*

Experiments:
[1] = Stability testing of peptides in mouse plasma; type: in vitro ADME
Protocol: (§1) Stability testing of peptides in plasma. The stability in plasma of the peptides […], […], […] and […] was determined as follows. […] The frozen blank plasma from human, rat and mouse had been thawed and heated to a temperature of 37° C. before addition of the stock solution. The spiked plasma samples were gently mixed and allowed to equilibrate for about 5 minutes before start of experiment. The plasma samples were incubated for 48 hours in a Galaxy® CO2 incubator at 37° C. […] The samples were stored at -70° C. until analysis. Plasma samples were assayed as follows. The 30 μL plasma samples were protein precipitated with […] of cold ethanol in a 96-well low bind plate (Eppendorf Protein LoBind). After mixing and centrifugation 100 μl the supernatant was transferred to a new plate and 1 μl was injected onto an analytical column. The analysis was performed using a μLC-system ([…]) coupled to a medium high resolution mass spectrometer (Perkin Elmer PenTOF) with positive electrospray ionisation. […] Flow: 0.1 ml/min using a slow reversed phase gradient. […] Products with +1 mass may arise from deamidation at amide groups of glutamine or at the C-terminus. Cleavage products arise from the action of the protease DPP IV in plasma. Both the degradation of the peptides and formation of peptide products were reported in percentage of the initial peptide concentration. Peaks were integrated and % remaining peptide was calculated: […] Levels of deamidation and DPP IV cleavage were low for […] and […].

[2] = Stability testing of peptides in human plasma; type: in vitro ADME
Protocol: as §1

[3] = Stability testing of peptides in rat plasma; type: in vitro ADME
Protocol: Stability testing of peptides in plasma. The stability in plasma of the peptides […], […], […] and […] was determined as follows. […] The frozen blank plasma from human, rat and mouse had been thawed and heated to a temperature of 37° C. before addition of the stock solution. The spiked plasma samples were gently mixed and allowed to equilibrate for about 5 minutes before start of experiment. The plasma samples were incubated for 48 hours in a Galaxy® CO2 incubator at 37° C. […] The samples were stored at -70° C. until analysis. Plasma samples were assayed as follows. The 30 μL plasma samples were protein precipitated with […] of cold ethanol in a 96-well low bind plate (Eppendorf Protein LoBind). After mixing and centrifugation 100 μl the supernatant was transferred to a new plate and 1 μl was injected onto an analytical column. The analysis was performed using a μLC-system ([…]) coupled to a medium high resolution mass spectrometer (Perkin Elmer PenTOF) with positive electrospray ionisation. […] Flow: 0.1 ml/min using a slow reversed phase gradient. […] Products with +1 mass may arise from deamidation at amide groups of glutamine or at the C-terminus. Cleavage products arise from the action of the protease DPP IV in plasma. […] Peaks were integrated and % remaining peptide was calculated: […] […]

[4] = test system: DIO mice; experiment: Diet induced obesity (DIO) mouse model, study A; type: in vivo; details: for HOMA / Hepatic TG / Plasma NEFA / Plasma TG: day 14; for FGF21 / BeHy: day 14 (dose from row order); for Glucose / Insulin: day 14, 4-hour fasting; for BeHy: beta-hydroxybutyrate
Source text: Female C57/B16JHsdOla (obtained from Harlan Laboratories, UK) were started on a high fat diet of D12492 (Research Diets, NJ, USA) and a chocolate confection, delicato ball (Delicata Bakverk, Sweden) at 9-11 weeks of age, and were maintained on the diet for 16 weeks prior to arrival to the animal facility, during a three week acclimatizion period and during drug treatment, caloric content of the two components of the diet is shown in Table 11. The mice were divided into 9 groups (n=5-6), and treatment was started at 29 weeks of age.
The body weight of the animals was monitored daily throughout the dosing period. At day 14, blood samples for the measurement of plasma glucose and insulin from conscious mice were obtained after a 4-hour fasting period. Mice were then anaesthetized using isofluorane and terminal blood was collected from the capillary bed behind the eye. The following parameters were measured: blood chemistry measurements of triglycerides, total cholesterol, non-esterified fatty acids (NEFA), beta-hydroxybutyrate and fibroblast growth factor 21 (FGF21) (Tables 14 and 15 below).

[5] = physchem; details: pH 7.2
Protocol: Peptide solubility was assessed in three different isotonic formulations: • 1. […] Final formulation pH=7.2 • 2. Back up formulation 1 (BF1)=0.05M Tris, 50 mM Arginine/Proline. Final formulation pH=8.0 • 3. […] Final formulation pH=7.0

[6] = target: human serum albumin (Homo sapiens, UniProt P02768); experiment: Fraction of free peptide at plasma concentration of albumin, calculated from variation in cAMP generation with HSA concentration; type: in vitro ADME; parameters: purchased Sigma Aldrich; details: calculated from variation in cAMP generation with HSA concentration
Sequence of human serum albumin (P02768 25-609): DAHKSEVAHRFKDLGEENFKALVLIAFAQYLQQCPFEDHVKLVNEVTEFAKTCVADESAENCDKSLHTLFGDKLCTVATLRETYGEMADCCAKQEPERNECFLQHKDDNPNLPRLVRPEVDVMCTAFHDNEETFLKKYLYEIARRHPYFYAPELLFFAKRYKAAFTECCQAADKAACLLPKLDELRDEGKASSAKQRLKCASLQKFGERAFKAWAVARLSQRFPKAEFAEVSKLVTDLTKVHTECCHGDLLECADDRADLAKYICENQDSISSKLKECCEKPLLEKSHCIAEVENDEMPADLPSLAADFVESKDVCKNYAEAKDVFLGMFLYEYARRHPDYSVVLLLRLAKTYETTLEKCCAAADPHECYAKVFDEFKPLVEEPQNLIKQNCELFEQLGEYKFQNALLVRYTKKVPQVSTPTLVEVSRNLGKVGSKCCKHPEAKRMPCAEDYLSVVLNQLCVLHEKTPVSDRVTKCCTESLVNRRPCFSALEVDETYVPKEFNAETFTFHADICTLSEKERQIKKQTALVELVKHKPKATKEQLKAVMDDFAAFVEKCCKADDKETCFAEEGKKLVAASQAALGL

[7] = Peptide solubility in buffers (A280); details: target 1 mg/ml
[8] = target: Rat GlucR (Rattus norvegicus, UniProt P30082); experiment: cAMP assay 2 in […] rat serum albumin, rat GlucR; details: assay 2, […] Rat Serum Albumin; relative potencies vs natural ligands
Sequence of Rat GlucR (P30082 27-485): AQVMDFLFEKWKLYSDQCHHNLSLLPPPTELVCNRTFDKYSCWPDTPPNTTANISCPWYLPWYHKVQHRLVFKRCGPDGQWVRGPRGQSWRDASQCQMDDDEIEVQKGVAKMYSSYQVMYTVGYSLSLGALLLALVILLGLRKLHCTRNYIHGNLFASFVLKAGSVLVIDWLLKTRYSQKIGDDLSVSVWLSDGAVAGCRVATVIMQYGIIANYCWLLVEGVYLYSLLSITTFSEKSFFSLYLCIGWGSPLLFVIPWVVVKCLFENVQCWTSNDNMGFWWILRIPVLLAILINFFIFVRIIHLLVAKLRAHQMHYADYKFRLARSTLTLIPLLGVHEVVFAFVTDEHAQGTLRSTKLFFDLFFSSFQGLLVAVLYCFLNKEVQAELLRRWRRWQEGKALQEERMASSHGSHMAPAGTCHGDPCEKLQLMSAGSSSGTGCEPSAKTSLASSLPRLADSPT

[9] = target: Mouse GlucR (Mus musculus, UniProt Q61606); experiment: cAMP assay 2 in […] mouse serum albumin, mouse GlucR; details: assay 2, […] Mouse Serum Albumin; relative potencies vs natural ligands
Sequence of Mouse GlucR (Q61606 27-485): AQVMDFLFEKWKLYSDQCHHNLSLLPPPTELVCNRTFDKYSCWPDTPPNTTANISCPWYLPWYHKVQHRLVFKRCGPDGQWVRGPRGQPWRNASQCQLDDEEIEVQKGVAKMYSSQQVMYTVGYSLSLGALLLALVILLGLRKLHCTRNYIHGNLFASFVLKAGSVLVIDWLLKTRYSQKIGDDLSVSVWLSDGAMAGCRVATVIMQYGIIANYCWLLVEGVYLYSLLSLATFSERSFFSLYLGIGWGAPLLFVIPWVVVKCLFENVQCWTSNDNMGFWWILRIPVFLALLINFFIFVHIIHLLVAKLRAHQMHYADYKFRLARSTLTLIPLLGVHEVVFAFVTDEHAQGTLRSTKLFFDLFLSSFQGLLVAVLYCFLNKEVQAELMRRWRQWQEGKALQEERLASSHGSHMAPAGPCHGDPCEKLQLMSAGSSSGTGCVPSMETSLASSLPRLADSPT

[10] = target: Human GlucR (Homo sapiens, UniProt P47871); experiment: cAMP assay 2 in 4.4% human serum albumin, human GlucR; details: assay 2, 4.4% Human Serum Albumin; relative potency GlucR (vs glucagon)/relative potency GLP1R (vs GLP1)
Sequence of Human GlucR (P47871 26-477): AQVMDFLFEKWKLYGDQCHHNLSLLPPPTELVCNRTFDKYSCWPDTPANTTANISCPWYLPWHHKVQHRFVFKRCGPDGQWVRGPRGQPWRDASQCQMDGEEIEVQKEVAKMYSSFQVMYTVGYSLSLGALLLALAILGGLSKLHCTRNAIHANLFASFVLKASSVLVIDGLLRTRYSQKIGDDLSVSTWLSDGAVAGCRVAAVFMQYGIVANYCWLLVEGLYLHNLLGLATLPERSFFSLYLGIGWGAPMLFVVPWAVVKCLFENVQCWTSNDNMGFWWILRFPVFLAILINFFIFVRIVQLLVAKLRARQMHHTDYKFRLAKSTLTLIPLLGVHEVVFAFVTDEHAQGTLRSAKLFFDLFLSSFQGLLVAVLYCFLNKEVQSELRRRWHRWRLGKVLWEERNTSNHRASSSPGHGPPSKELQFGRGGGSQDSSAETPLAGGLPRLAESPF

SMILES: CCCCCCCCCCCCCCCC(=O)N[C@@H](CCC(=O)NCCCC[C@H](NC(=O)[C@H](CCCCN)NC(=O)[C@H](CO)NC(=O)[C@H](Cc1ccc(O)cc1)NC(=O)[C@H](CC(=O)O)NC(=O)[C@H](CO)NC(=O)[C@@H](NC(=O)[C@H](Cc1ccccc1)NC(=O)[C@@H](NC(=O)CNC(=O)[C@H](CCC(N)=O)NC(=O)[C@H](CO)NC(=O)[C@@H](N)Cc1c[nH]cn1)[C@@H](C)O)[C@@H](C)O)C(=O)N[C@@H](CC(C)C)C(=O)N[C@@H](CC(=O)O)C(=O)N[C@@H](CO)C(=O)N[C@@H](CCC(=O)O)C(=O)N[C@@H](CCCNC(=N)N)C(=O)N[C@@H](C)C(=O)N[C@@H](CCCNC(=N)N)C(=O)N[C@@H](CC(=O)O)C(=O)N[C@@H](Cc1ccccc1)C(=O)N[C@H](C(=O)N[C@@H](C)C(=O)N[C@@H](Cc1c[nH]c2ccccc12)C(=O)N[C@@H](CC(C)C)C(=O)N[C@H](C(=O)N[C@@H](C)C(=O)NCC(=O)NCC(N)=O)C(C)C)C(C)C)C(=O)O [Peptide G730] (H-HSQGTFTSDYSKK([γGlu-Palmitoyl])LDSERARDFVAWLVAGG-NH2; N-terminus assumed)
- % +1 prod [1]: 15%
- % DPP cleaved product ([1]; Mouse Plasma at 24 h, 37° C., column % DPP cleaved product/+1 DPP cleaved product, first figure): 14%
- % +1 DPP cleaved product ([1]; Mouse Plasma at 24 h, 37° C., column % DPP cleaved product/+1 DPP cleaved product, second figure): 5%
- % +1 prod [2]: <1%
- % DPP cleaved product/+1 DPP cleaved product [2]: <1%
- % +1 prod [3]: 58%
- % DPP cleaved product/+1 DPP cleaved product [3]: 2%
- BW day 14 (% change of vehicle mean) ([4]; 10 nmol/kg s.c. twice daily for 14 days): −7.5%
- HOMA ([4]; 10 nmol/kg s.c. twice daily): 3.3
- Hepatic TG ([4]; 10 nmol/kg s.c. twice daily): 9.0 g TG/100g Tissue
- Plasma NEFA ([4]; 10 nmol/kg s.c. twice daily): 0.28 mM
- Plasma TG ([4]; 10 nmol/kg s.c. twice daily): 0.21 mM
- FGF21 ([4]; 10 nmol/kg s.c. twice daily): 1963 pg/mL
- Glucose ([4]; 10 nmol/kg s.c. twice daily): 7.2 mM
- Insulin ([4]; 10 nmol/kg s.c. twice daily): 0.4 nM
- BW day 14 (% change of vehicle mean) ([4]; 20 nmol/kg s.c. twice daily for 14 days): −15.6%
- HOMA ([4]; 20 nmol/kg s.c. twice daily): 1.7
- Hepatic TG ([4]; 20 nmol/kg s.c. twice daily): 17.7 g TG/100g Tissue
- Plasma NEFA ([4]; 20 nmol/kg s.c. twice daily): 0.26 mM
- Plasma TG ([4]; 20 nmol/kg s.c. twice daily): 0.2 mM
- FGF21 ([4]; 20 nmol/kg s.c. twice daily): 2236 pg/mL
- Glucose ([4]; 20 nmol/kg s.c. twice daily): 6.7 mM
- Insulin ([4]; 20 nmol/kg s.c. twice daily): 0.2 nM
- insulin sensitivity index HOMA ([4]; 20 nmol/kg, result in words): significantly improved
- change in weight at day 14 as compared to the vehicle-treated animals ([4]; 50 nmol/kg): about 24%
- BW day 14 (% change of vehicle mean) ([4]; 50 nmol/kg s.c. twice daily for 14 days): −24.0%
- HOMA ([4]; 50 nmol/kg s.c. twice daily): 2.1
- Hepatic TG ([4]; 50 nmol/kg s.c. twice daily): 28.1 g TG/100g Tissue
- Plasma NEFA ([4]; 50 nmol/kg s.c. twice daily): 0.32 mM
- Plasma TG ([4]; 50 nmol/kg s.c. twice daily): 0.23 mM
- FGF21 ([4]; 50 nmol/kg s.c. twice daily): 5294 pg/mL
- Glucose ([4]; 50 nmol/kg s.c. twice daily): 5.9 mM
- Insulin ([4]; 50 nmol/kg s.c. twice daily): 0.3 nM
- Total plasma cholesterol ([4]; at all doses, result in words): lowered
- BeHy ([4]; 10 nmol/kg s.c. twice daily): 428 µmol/L
- BeHy ([4]; 20 nmol/kg s.c. twice daily): 750 µmol/L
- BeHy ([4]; 50 nmol/kg s.c. twice daily): 1477 µmol/L
- effect on body weight over the 14 day dosing period ([4]; study A, FIGS. 1-4): dose dependent and continuous weight loss
- glucose levels at day 14 ([4]; study A, result in words): dose-dependent reduction
- solubility [5]: ≥ 5000 µg/mL
- free peptide at 4.4% HSA [6]: 0.85%
- Conc. (mg/ml) A280 ([7]; Glutamate pH 4.5, 100 mM): 0.83 mg/mL
- Conc. (mg/ml) A280 ([7]; Phosphate pH 6.5, 100 mM): 0.83 mg/mL
- Conc. (mg/ml) A280 ([7]; Phosphate pH 7.5, 100 mM): 0.85 mg/mL
- Conc. (mg/ml) A280 ([7]; Phosphate, pH = 6, 100 mM): 0.14 mg/mL
- Conc. (mg/ml) A280 ([7]; Tris pH 7.5, 100 mM): 0.83 mg/mL
- Conc. (mg/ml) A280 ([7]; Tris pH 8.0, 100 mM): 1.1 mg/mL
- Rat GlucR/GLP1R Ratio [8]: 0.06
- Mouse GlucR/GLP1R Ratio [9]: 0.04
- Human GlucR/GLP1R Ratio [10]: 0.122
